From the supplement of paper PMC10307832

Assays:
Experiment in all cases: relative viability (nuclei count vs DMSO), 5 days (fraction); higher = more cells survive
[1] = compound: CC1=NN=C(O1)C2=NN=C(C=C2)N3CCC(CC3)OC4=C(C=CC(=C4)F)Cl + Cc1nc(Nc2ncc(C(=O)Nc3c(C)cccc3Cl)s2)cc(N2CCN(CCO)CC2)n1 [Dasatinib] (partner 0.075 µM)
In short: (§1)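 Lung cancer cell lines were seeded in 1536-well plates and dosed by pin tool the next day, with either a single drug or a fixed anchor-drug dose combined with five library-drug doses (not always all listed) spaced in √10 steps. Five days later, one step fixed the cells and stained their nuclei (final 0.05% Triton X-100, 1% formaldehyde, 1 ug/ml Hoechst), and nuclei were counted on 4× images. Relative viability is the nuclei count in treated wells divided by the count in vehicle wells, and each value is the median of duplicate plates.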

[2] = compound: CC1=NN=C(O1)C2=NN=C(C=C2)N3CCC(CC3)OC4=C(C=CC(=C4)F)Cl + O=C(CCCCCCC(=O)Nc1ccccc1)NO [Vorinostat] (partner 1 µM)
In short: as §1

Tosedostat + Vorinostat = compound: CC(C)C[C@@H](C(=O)N[C@H](C(=O)OC1CCCC1)c1ccccc1)[C@H](O)C(=O)NO [Tosedostat] + O=C(CCCCCCC(=O)Nc1ccccc1)NO [Vorinostat] (partner 1 µM)
In short: as §1

[3] = compound: CC1=NN=C(O1)C2=NN=C(C=C2)N3CCC(CC3)OC4=C(C=CC(=C4)F)Cl + Nc1ncn([C@H]2C[C@H](O)[C@@H](CO)O2)c(=O)n1 [Decitabine] (partner 2 µM)
In short: as §1

Cell Line	relative viability ([1]; first compound 0.253 µM)	relative viability ([1]; first compound 0.8 µM)	relative viability ([1]; first compound 2.53 µM)	relative viability ([1]; first compound 8 µM)	relative viability ([2]; first compound 0.253 µM)	relative viability ([2]; first compound 0.8 µM)	relative viability ([2]; first compound 2.53 µM)	relative viability ([2]; first compound 8 µM)	relative viability (Tosedostat + Vorinostat; first compound 0.02 µM)	relative viability (Tosedostat + Vorinostat; first compound 0.06325 µM)	relative viability (Tosedostat + Vorinostat; first compound 0.2 µM)	relative viability (Tosedostat + Vorinostat; first compound 0.6325 µM)	relative viability (Tosedostat + Vorinostat; first compound 2 µM)	relative viability ([3]; first compound 0.253 µM)	relative viability ([3]; first compound 0.8 µM)	relative viability ([3]; first compound 2.53 µM)	relative viability ([3]; first compound 8 µM)
NCI-H3122	0.283	0.313	0.28	0.23	0.484	0.484	0.443	0.345	1.02	1.06	1.46	0.879	0.954	0.376	0.31	0.412	0.281
NCI-H1651	0.406	0.394	0.335	0.374	0.431	0.241	0.389	0.336	0.564	0.609	0.548	0.556	0.472	0.486	0.46	0.451	0.391
NCI-H661	0.785	0.608	–	0.68	0.802	0.745	0.702	0.629	0.837	0.826	0.796	0.775	0.814	0.519	0.465	0.407	0.396
NCI-H1755	0.36	0.438	0.406	0.373	0.538	0.553	0.611	0.538	0.912	0.795	0.732	0.768	0.637	0.524	0.54	0.605	0.503
NCI-H1734	0.496	0.417	0.477	0.401	0.721	0.692	0.721	0.737	0.949	0.757	0.886	0.612	0.514	0.519	0.482	0.463	0.503
NCI-H1993	0.537	0.564	0.768	0.549	0.681	0.763	0.766	0.762	0.732	0.728	0.588	0.608	0.548	0.554	0.551	0.484	0.647
RERF-LC-KJ	0.553	0.559	0.619	0.581	0.347	0.467	0.453	0.493	0.692	0.676	0.604	0.681	0.619	0.574	0.561	0.52	0.521
HARA	0.271	0.248	0.247	0.235	0.476	0.345	0.499	0.432	1.35	0.531	0.544	0.377	0.295	0.414	0.384	0.357	0.319
NCI-H838	0.299	0.32	0.301	0.331	0.583	0.599	0.607	0.623	0.772	0.732	0.808	0.833	0.87	0.467	0.463	0.442	0.451
